Measured values: patent US11547681B2, “N-acylethanolamide derivatives and uses thereof” (ELIEM THERAPEUTICS, INC., priority 2016, dated 2023)

Assays:
in vitro [1] = conditions: male, Sprague-Dawley, rat; for Concentration, analyte PEA / % Remaining of Initial (n = 1) / Measured concentration of PEA (analyte) / % Remaining of Initial: 1 μM; for microsomal CLint at 1 μM: s9, CLint; for half-life at 1 μM: s9, Half-life
Experimental: (§1) The reaction mixture, minus cofactors, was prepared as described below. The test article was added into the reaction mixture at a final concentration of 1 μM. […] An aliquot of the reaction mixture (without cofactor cocktail) was equilibrated in a shaking water bath at 37° C. for 3 minutes. The reaction was initiated by the addition of cofactor cocktail, and the mixture was incubated in a shaking water bath at 37° C. Aliquots (100 μL) were withdrawn at 0, 10, 20, 30, and 60 minutes. All samples were immediately combined with 400 uL of icecold 50/50 acetonitrile/H2O containing 0.1% formic acid and internal standard to terminate the reaction. The samples were then mixed and centrifuged to precipitate proteins. Calibration standards were prepared in matched matrix. All samples and standards were assayed by LC-MS/MS using electrospray ionization for both the dosed prodrug I-9 and the expected drug (PEA). Analytical conditions are outlined in Appendix 4-1. The test article concentration at each time point was compared to the test article concentration at time 0 to determine the percent remaining at each time point. Half-lives were calculated using GraphPad software, fitting to single-phase exponential decay equation.
(§2) Reaction mixture, minus cofactors, was prepared as described below. Test article was added into the reaction mixture at a final concentration of 1 μM. […] An aliquot of the reaction mixture (without cofactor cocktail) was equilibrated in a shaking water bath at 37° C. for 3 minutes. The reaction was initiated by the addition of cofactor cocktail, and the mixture was incubated in a shaking water bath at 37° C. Aliquots (100 μL) were withdrawn at 0, 10, 20, 30, and 60 minutes. Test article samples were immediately combined with 300 μL of ice-cold acetonitrile containing 1% formic acid. Control samples were immediately combined with 400 μL of ice-cold 50/50 acetonitrile (ACN)/dH2O containing 0.1% formic acid and internal standard to terminate the reaction. Samples were then mixed and centrifuged to precipitate proteins. Calibration standards were prepared in matched matrix. Samples and standards were assayed by LC-MS/MS using electrospray ionization for both the dosed prodrug and the expected drug (PEA). Analytical conditions are outlined in Appendix 8-1. Test article concentration at each time point was compared to test article concentration at time 0 to determine the percent remaining at each time point. Halflives were calculated using GraphPad software, fitting to a single-phase exponential decay equation.
as §2, with “for 5” for “for 3”, “minutes. Reaction” for “minutes. The reaction”, “and” for “and the”, “both” for “both the”, “Appendix 10-1.” for “Appendix 8-1.”
(§3) Reaction mixture, minus cofactors, was prepared as described below.

in vitro [2] = conditions: both, human; for Concentration, analyte PEA / % Remaining of Initial (n = 1) / Measured concentration of PEA (analyte) / % Remaining of Initial: 1 μM; for microsomal CLint at 1 μM: s9, CLint; for half-life at 1 μM: s9, Half-life
Experimental: as §1, §2
as §2, with “for 5” for “for 3”, “minutes. Reaction” for “minutes. The reaction”, “and” for “and the”, “both” for “both the”, “Appendix 10-1.” for “Appendix 8-1.”
as §3

For `CCCCC/C=C\C/C=C\CCCCCCCC(=O)OCC(COC(=O)CCC(=O)OCCNC(=O)CCCCCCCCCCCCCCC)OC(=O)CCCCCCC/C=C\C/C=C\CCCCC` (stereo not shown) [Compound I-13], the “Concentration, analyte PEA” value (in vitro [1]; 0 min) was 0 nM, the “Concentration, analyte PEA” value (in vitro [1]; 10 min) was 20 nM and the “Concentration, analyte PEA” value (in vitro [1]; 20 min) was 48 nM. For the same compound, the “Concentration, analyte PEA” value (in vitro [1]; 30 min) was 64 nM, the “Concentration, analyte PEA” value (in vitro [1]; 60 min) was 92 nM and the “% Remaining of Initial (n = 1)” value (in vitro [1]; s9, 0 h) was 100%. The “% Remaining of Initial (n = 1)” value (in vitro [1]; s9, 10 min) was 80%, the “% Remaining of Initial (n = 1)” value (in vitro [1]; s9, 20 min) was 82% and the “% Remaining of Initial (n = 1)” value (in vitro [1]; s9, 0.5 h) was 81%. For the same compound, the “% Remaining of Initial (n = 1)” value (in vitro [1]; s9, 1 h) was 55%, the microsomal CLint at 1 μM (in vitro [1]) was under 11.6 µL/min/mg and the microsomal CLint at 1 μM (in vitro [1]; calculated (in parentheses)) was 8.59 µL/min/mg. For the same compound, the half-life at 1 μM (in vitro [1]) was over 1 h, the half-life at 1 μM (in vitro [1]; calculated (in parentheses)) was 1.35 h and the “Concentration, analyte PEA” value (in vitro [2]; 0 min) was 0 nM. The “Concentration, analyte PEA” value (in vitro [2]; 10 min) was 10 nM, the “Concentration, analyte PEA” value (in vitro [2]; 20 min) was 14 nM and the “Concentration, analyte PEA” value (in vitro [2]; 30 min) was 18 nM. For the same compound, the “Concentration, analyte PEA” value (in vitro [2]; 60 min) was 31 nM, the “% Remaining of Initial (n = 1)” value (in vitro [2]; s9, 0 h) was 100% and the “% Remaining of Initial (n = 1)” value (in vitro [2]; s9, 10 min) was 86%. For the same compound, the “% Remaining of Initial (n = 1)” value (in vitro [2]; s9, 20 min) was 86%, the “% Remaining of Initial (n = 1)” value (in vitro [2]; s9, 0.5 h) was 86% and the “% Remaining of Initial (n = 1)” value (in vitro [2]; s9, 1 h) was 59%. It also gave a microsomal CLint at 1 μM (in vitro [2]) of under 11.6 µL/min/mg, a microsomal CLint at 1 μM (in vitro [2]; calculated (in parentheses)) of 7.57 µL/min/mg and a half-life at 1 μM (in vitro [2]) of over 1 h. For the same compound, the half-life at 1 μM (in vitro [2]; calculated (in parentheses)) was 1.53 h.

In the case of `CCCCCCCCCCCCCCCC(=O)NCCOC(=O)CCC(=O)OC(COC(=O)CCC)COC(=O)CCC` [Compound I-16], the “Measured concentration of PEA (analyte)” value (in vitro [1]; 0 min) is reported as 0 µM, the “Measured concentration of PEA (analyte)” value (in vitro [1]; 10 min) is reported as 0.20 µM and the “Measured concentration of PEA (analyte)” value (in vitro [1]; 20 min) is reported as 0.28 µM. The “Measured concentration of PEA (analyte)” value (in vitro [1]; 30 min) was 0.34 µM, the “Measured concentration of PEA (analyte)” value (in vitro [1]; 60 min) was 0.38 µM and the “% Remaining of Initial” value (in vitro [1]; s9, 0 h) was 100%. For the same compound, the “% Remaining of Initial” value (in vitro [1]; s9, 10 min) was under 1.0%, the “% Remaining of Initial” value (in vitro [1]; s9, 20 min) was under 1.0% and the “% Remaining of Initial” value (in vitro [1]; s9, 0.5 h) was under 1.0%. The “% Remaining of Initial” value (in vitro [1]; s9, 1 h) was under 1.0%, the microsomal CLint at 1 μM (in vitro [1]) was over 691 µL/min/mg and the half-life at 1 μM (in vitro [1]) was under 0.0167 h. For the same compound, the “Measured concentration of PEA (analyte)” value (in vitro [2]; 0 min) was 0 µM, the “Measured concentration of PEA (analyte)” value (in vitro [2]; 10 min) was 0.17 µM and the “Measured concentration of PEA (analyte)” value (in vitro [2]; 20 min) was 0.29 µM. The “Measured concentration of PEA (analyte)” value (in vitro [2]; 30 min) was 0.33 µM, the “Measured concentration of PEA (analyte)” value (in vitro [2]; 60 min) was 0.32 µM and the “% Remaining of Initial” value (in vitro [2]; s9, 0 h) was 100%. For the same compound, the “% Remaining of Initial” value (in vitro [2]; s9, 10 min) was 3.2%, the “% Remaining of Initial” value (in vitro [2]; s9, 20 min) was under 1.0% and the “% Remaining of Initial” value (in vitro [2]; s9, 0.5 h) was under 1.0%. The “% Remaining of Initial” value (in vitro [2]; s9, 1 h) was under 1.0%, the microsomal CLint at 1 μM (in vitro [2]) was over 69.3 µL/min/mg and the half-life at 1 μM (in vitro [2]) was under 0.167 h.
